Test [1] concerns pentagastrin-stimulated acid secretion. The test is described as follows: Measurement of Inhibition of Pentagastrin-stimulated Acid Secretion. It is filed as in vivo, male Sprague-Dawley (SD)-strain rats. Particulars: intraduodenal; for inhibition in vivo at 10 mg/kg: read-out: % Inhibition of acid output. How it is done:
Male Sprague-Dawley (SD)-strain rats were used. Each rat was operated to ligate the pylorus, and equip with a duodenal catheter and gastric fistula under a ether anesthesia. After the operation, each rat was placed in a Bollman-type cage and continuously infused pentagastrin (15 μg/kg/hr) through the tail vein. Test compounds were suspended in 0.5% aqueous sodium carboxymethylcellulose (which hereinafter be abbreviated as "vehicle"). Vehicle or test compound was administered through the intraduodenal catheter 1 hour after the beginning of pentagastrin infusion. Acidity of the collected gastric juice was measured by an automatic titillation device. Acid output was determined by multiplying the volume by the acidity of gastric juice. […] [formula]

In a further test the target is T1, CCK-B receptors (Cavia porcellus, UniProt H0VZC5).
T1 construct: Cerebral cortices were removed from Hartley-strain guinea pigs, the cerebral cortices were homogenized; from tissue; host or cells: cerebral cortex of Hartley-strain guinea pigs, crude membrane pellet
T1 sequence (H0VZC5 1-426): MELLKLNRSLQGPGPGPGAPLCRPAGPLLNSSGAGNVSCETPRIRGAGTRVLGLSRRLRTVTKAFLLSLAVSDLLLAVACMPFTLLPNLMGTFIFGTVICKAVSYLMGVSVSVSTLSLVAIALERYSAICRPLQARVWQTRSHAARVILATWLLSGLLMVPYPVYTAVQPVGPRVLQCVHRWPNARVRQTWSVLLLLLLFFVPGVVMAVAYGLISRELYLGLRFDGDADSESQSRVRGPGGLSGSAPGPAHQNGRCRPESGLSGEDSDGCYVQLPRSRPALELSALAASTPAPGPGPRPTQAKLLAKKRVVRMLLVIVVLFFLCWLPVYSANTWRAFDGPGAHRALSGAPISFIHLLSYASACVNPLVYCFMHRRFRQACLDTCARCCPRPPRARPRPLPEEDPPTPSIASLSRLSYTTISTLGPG
Kind of test: Measurement of Binding Affinity for CCK-B Receptors. Details: species or system Hartley-strain guinea pig. Conditions: inhibition of specific [3H]CCK-8 (1.0 nM) binding; guinea pig cerebral cortex; 25° C., 2 hours; pH 6.5; read-out: Ki (CCK-B receptors).

The mark [2] stands for this setting: rat, acid output from 1 to 4 hours after administration, pentagastrin 15 μg/kg/hr.

Where two headings read alike, the source gives them in different places.

Compound `Cc1ccc2c(c1)N(CC(=O)C(C)(C)C)C(=O)C(NC(=O)Nc1cccc(C(=O)O)c1)CN2C1CCCCC1` (stereo not shown) [Example 118, 3-[3-(1-tert-butylcarbonylmethyl-2-oxo-5-cyclohexyl-8-methyl-1,3,4,5-tetrahydro-2H-1,5-benzodiazepin-3-yl)ureido]benzoic acid] registered an inhibition in vivo at 30 mg/kg in test [1] (setting [2]) of 88.3%.

On to `Cc1ccc2c(c1)N(CC(=O)c1ccco1)C(=O)C(NC(=O)Nc1cccc(C(=O)O)c1)CN2C(=O)C(C)(C)C` (stereo not shown) [Example 114, 3-[3-[1-(furan-2-yl)carbonylmethyl-2-oxo-5-pivaloyl-8-methyl-1,3,4,5-tetrahydro-2H-1,5-benzodiazepin-3-yl]ureido]benzoic acid], for which the Ki at CCK-B receptors is 9.43 nM. The compound also showed an inhibition in vivo at 30 mg/kg in test [1] (setting [2]) of 89.7%. Take `CC(C)(C)OC(=O)CN1C(=O)C(NC(=O)Nc2cccc(C(=O)O)c2)CN(c2ccccc2)c2ccccc21` (stereo not shown) [Example 80, 3-[3-[1-tert-butoxycarbonylmethyl-2-oxo-5-phenyl-1,3,4,5-tetrahydro-2H-1,5-benzodiazepin-3-yl]ureido]benzoic acid]: on CCK-B receptors, the inhibitory constant (Ki) amounted to 2.62 nM. Further, the inhibition in vivo at 3 mg/kg in test [1] (setting [2]) was determined as 45.4%. Regarding `CC(C)(C)C(=O)CN1C(=O)C(NC(=O)Nc2cccc(C(=O)O)c2)CN(C(=O)C(C)(C)C)c2ccccc21` (stereo not shown) [Example 10, 3-[3-(1-tert-butylcarbonylmethyl-2-oxo-5-pivaloyl-1,3,4,5-tetrahydro-2H-1,5-benzodiazepin-3-yl)ureido]benzoic acid], the Ki at CCK-B receptors turned out to be 6.87 nM. The inhibition in vivo at 10 mg/kg in test [1] (10 mg/kg, rat, acid output from 1 to 4 hours after administration, pentagastrin 15 μg/kg/hr) was 67.1%. In test [1] (0.3 mg/kg, rat, acid output from 1 to 4 hours after administration, pentagastrin 15 μg/kg/hr), `Cc1ccc(NC(=O)N[C@@H]2CN(C3CCCCC3)c3ccccc3N(CC(=O)C(C)(C)C)C2=O)cc1C(=O)O` [Example 166, (R)-(-)-2-methyl-5-[3-(1-tert-butylcarbonylmethyl-2-oxo-5-cyclohexyl-1,3,4,5-tetrahydro-2H-1,5-benzodiazepin-3-yl)ureido]benzoic acid] had an inhibition in vivo at 0.3 mg/kg of 51.2%. As for `Cc1ccc2c(c1)N(CC(=O)c1ccccc1C)C(=O)C(NC(=O)Nc1cccc(C(=O)O)c1)CN2C(=O)C(C)(C)CCl` (stereo not shown) [Example 94, 3-[3-[1-(2-toluoylmethyl)-2-oxo-5-(3-chloro-2,2-dimethylpropionyl)-8-methyl-1,3,4,5-tetrahydro-2H-1,5-benzodiazepin-3-yl]ureido]benzoic acid], at CCK-B receptors, the inhibition constant Ki stood at 1.62 nM. Further, the inhibition in vivo at 30 mg/kg in test [1] (setting [2]) stood at 93.3%. As for `Cc1ccc2c(c1)N(CC(=O)C(C)(C)C)C(=O)C(NC(=O)Nc1cccc(C(=O)O)c1)CN2c1ccccc1` (stereo not shown) [Example 95, 3-[3-(1-tert-butylcarbonylmethyl-2-oxo-5-phenyl-8-methyl-1,3,4,5-tetrahydro-2H-1,5-benzodiazepin-3-yl]ureido]benzoic acid], the Ki on CCK-B receptors turned out to be 2.26 nM. For the same compound, in test [1] (setting [2]), the inhibition in vivo at 1 mg/kg came to 49%. For the compound `Cc1ccc2c(c1)N(CC(=O)c1ccccc1C)C(=O)C(NC(=O)Nc1cccc(C(=O)O)c1)CN2C(=O)C(C)(C)C` (racemic) [Example 13 (racemate), 3-[3-[1-(2-toluoylmethyl)-2-oxo-5-pivaloyl-8-methyl-1,3,4,5-tetrahydro-2H-1,5-benzodiazepin-3-yl]ureido]benzoic acid], at CCK-B receptors, the Ki stood at 3.16 nM. Besides, in test [1] (setting [2]), the inhibition in vivo at 3 mg/kg worked out at 80.9%.

For `Cc1ccc2c(c1)N(CC(=O)c1cccs1)C(=O)C(NC(=O)Nc1cccc(C(=O)O)c1)CN2C(=O)C(C)(C)C` (stereo not shown) [Example 89, 3-[3-[1-(2-Thenoylmethyl)-2-oxo-5-pivaloyl-8-methyl-1,3,4,5-tetrahydro-2H-1,5-benzodiazepin-3-yl]ureido]benzoic acid], the inhibition in vivo at 30 mg/kg in test [1] (setting [2]) is 87.8%.

As for `Cc1ccccc1C(=O)CN1C(=O)C(NC(=O)Nc2cccc(C(=O)O)c2)CN(C(=O)C(C)(C)C)c2ccccc21` (single isomer, unassigned), the Ki at CCK-B receptors was 1.42 nM. Moreover, the inhibition in vivo at 10 mg/kg in test [1] (Rattus norvegicus, 4 h) amounted to 69.8%. Turning to `CC(C)(C)C(=O)CN1C(=O)[C@H](NC(=O)Nc2cccc(C(=O)NS(C)(=O)=O)c2)CN(C2CCCCC2)c2ccccc21` [Example 168, (R)-(-)-1-(1-tert-butylcarbonylmethyl-2-oxo-5-cyclohexyl-1,3,4,5-tetrahydro-2H-1,5-benzodiazepin-3-yl)-3-(3-methylsulfonylaminocarbonylphenyl)urea], on CCK-B receptors, the Ki was determined as 0.21 nM. This compound also gave an inhibition in vivo at 1 mg/kg in test [1] (setting [2]) of 58.9%. For the compound `Cc1ccccc1C(=O)CN1C(=O)C(NC(=O)Nc2cccc(-c3nnn[nH]3)c2)CN(C(=O)C(C)(C)C)c2ccccc21` (stereo not shown) [Example 61, 1-[1-(2-toluoylmethyl)-2-oxo-5-pivaloyl-1,3,4,5-tetrahydro-2H-1,5-benzodiazepin-3-yl]-3-[3-(tetrazol-5-yl)phenyl]urea], the Ki at CCK-B receptors worked out at 0.98 nM. For the compound `Cc1cccc(NC(=O)NC2CN(C(=O)C(C)(C)C)c3ccccc3N(CC(=O)c3ccccc3C)C2=O)c1` (stereo not shown) [Example 1, 1-[1-(2-toluoylmethyl)-2-oxo-5-pivaloyl-1,3,4,5-tetrahydro-2H-1,5-benzodiazepin-3-yl]-3-(3-methylphenyl)urea], the Ki on CCK-B receptors worked out at 6.47 nM. The inhibition in vivo at 30 mg/kg in test [1] (setting [2]) amounted to 59.4%. Regarding `CC(C)(C)OC(=O)CN1C(=O)C(NC(=O)Nc2cccc(SCC(=O)O)c2)CN(c2ccccc2)c2ccccc21` (stereo not shown) [Example 81, 3-[3-[1-tert-butoxycarbonylmethyl-2-oxo-5-phenyl-1,3,4,5-tetrahydro-2H-1,5-benzodiazepin-3-yl]ureido]phenylthioacetic acid], at CCK-B receptors, the Ki was 0.56 nM. Same read-out and setting: the result for `CC(C)(C)C(=O)CN1C(=O)C(NC(=O)Nc2cccc(C(=O)NS(C)(=O)=O)c2)CN(c2ccccc2)c2ccccc21` (stereo not shown) [Example 46, 1-(1-tert-butylcarbonylmethyl-2-oxo-5-phenyl-1,3,4,5-tetrahydro-2H-1,5-benzodiazepin-3-yl)-3-(3-methylsulfonylaminocarbonylphenyl)urea] reads 0.7 nM. Consider `CC(C)(C)OC(=O)CN1C(=O)C(NC(=O)Nc2cccc(C(=O)NS(C)(=O)=O)c2)CN(c2ccccc2)c2ccccc21` (stereo not shown) [Example 16, 1-(1-tert-butoxycarbonylmethyl-2-oxo-5-phenyl-1,3,4,5-tetrahydro-2H-1,5-benzodiazepin-3-yl)-3-(3-methylsulfonylaminocarbonylphenyl)urea], for which the Ki at CCK-B receptors amounted to 2.14 nM. On the same count and under the same terms, to `Cc1ccc2c(c1)N(CC(=O)c1ccccc1C)C(=O)C(NC(=O)Nc1cccc(C(=O)O)c1)CN2C(=O)c1ccccn1` (stereo not shown) [Example 105, 3-[3-[1-(2-toluoylmethyl)-2-oxo-5-(2-pyridylcarbonyl)-8-methyl-1,3,4,5-tetrahydro-2H-1,5-benzodiazepin-3-yl]ureido]benzoic acid] belongs 1.33 nM. In turn, `Cc1ccc2c(c1)N(CC(=O)c1ccccc1C)C(=O)C(NC(=O)Nc1cccc(C(=O)O)c1)CN2C(=O)c1ccco1` (stereo not shown) [Example 113, 3-[3-[1-(2-toluoylmethyl)-2-oxo-5-(furan-2-ylcarbonyl)-8-methyl-1,3,4,5-tetrahydro-2H-1,5-benzodiazepin-3-yl]ureido]benzoic acid] displayed an inhibition in vivo at 30 mg/kg in test [1] (setting [2]) of 75.7%. For the compound `CC(C)(C)C(=O)CN1C(=O)C(NC(=O)Nc2cccc(OCC(=O)O)c2)CN(c2ccccc2)c2ccccc21` (stereo not shown) [Example 35, 3-[3-(1-tert-butylcarbonylmethyl-2-oxo-5-phenyl-1,3,4,5-tetrahydro-2H-1,5-benzodiazepin-3-yl)ureido]phenoxyacetic acid], on CCK-B receptors, the Ki worked out at 0.61 nM.

For orientation: Ki means the dissociation constant of the complex between target and ligand, obtained from inhibition or displacement.

Source of the values: patent publication US6239131A, “1,5 Benzodiazepine derivatives” (Zeria Pharmaceutical Co., Ltd., priority 1996, dated 2001).
